Data as given in PubChem BioAssay (NCI).
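How tested: cells in 96-well plates exposed to compound for 48 hours at five concentrations. TGI marks complete inhibition of growth.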

Tests used:
Test in all cases: NCI anticancer screen, dose series, 48 h
[1] = tested on: 786-0 renal
[2] = tested on: OVCAR-3 ovarian
[3] = tested on: SK-MEL-2 melanoma
[4] = tested on: OVCAR-4 ovarian
[5] = tested on: SK-OV-3 ovarian
[6] = tested on: RXF 393 renal
[7] = tested on: MOLT-4 leukemia
[8] = tested on: MDA-MB-231 breast
[9] = tested on: K-562 leukemia
[10] = tested on: MCF7 breast
[11] = tested on: HCT-116 colon
[12] = tested on: SF-295 CNS
[13] = tested on: TK-10 renal
[14] = tested on: NCI-H226 lung
[15] = tested on: T-47D breast
[16] = tested on: NCI-H460 lung
[17] = tested on: UACC-62 melanoma
[18] = tested on: HCT-15 colon
[19] = tested on: SNB-19 CNS
[20] = tested on: LOX IMVI melanoma
[21] = tested on: OVCAR-8 ovarian
[22] = tested on: SR leukemia
[23] = tested on: DU-145 prostate
[24] = tested on: NCI-H522 lung
[25] = tested on: BT-549 breast
[26] = tested on: HOP-62 NSCLC
[27] = tested on: HCC-2998 colon
[28] = tested on: NCI-H23 lung
[29] = tested on: MDA-N
[30] = tested on: ACHN renal
[31] = tested on: CCRF-CEM leukemia
[32] = tested on: HS 578T breast
[33] = tested on: SK-MEL-28 melanoma
[34] = tested on: U251 CNS
[35] = tested on: A498 renal
[36] = tested on: EKVX NSCLC
[37] = tested on: HOP-92 NSCLC
[38] = tested on: SK-MEL-5 melanoma
[39] = tested on: SW-620 colon
[40] = tested on: HT29 colon
[41] = tested on: M14 melanoma
[42] = tested on: NCI/ADR-RES ovarian
[43] = tested on: COLO 205 colon
[44] = tested on: A549 NSCLC
[45] = tested on: MDA-MB-435
[46] = tested on: IGROV1 ovarian
[47] = tested on: PC-3 prostate
[48] = tested on: SF-268 CNS
[49] = tested on: CAKI-1 renal
[50] = tested on: RPMI-8226 leukemia
[51] = tested on: UO-31 renal
[52] = tested on: OVCAR-5 ovarian
[53] = tested on: SN12C renal
[54] = tested on: UACC-257 melanoma
[55] = tested on: HL-60(TB) leukemia
[56] = tested on: SNB-75 CNS
[57] = tested on: SF-539 CNS
[58] = tested on: KM12 colon
[59] = tested on: MALME-3M melanoma

SMILES: O=[N+]([O-])C1=Cc2c(O)ccc(O)c2C2c3ccccc3NC12 (stereo not drawn)
- TGI [1]: 24.7 µM
- TGI [2]: 19.3 µM
- TGI [3]: 40.1 µM
- TGI [4]: 30.1 µM
- TGI [5]: > 100 µM
- TGI [6]: 26.4 µM
- TGI [7]: > 44.5 µM
- TGI [8]: 31.4 µM
- TGI [9]: > 100 µM
- TGI [10]: 11.8 µM
- TGI [11]: 22.7 µM
- TGI [12]: 31.5 µM
- TGI [13]: 30 µM
- TGI [14]: > 100 µM
- TGI [15]: > 55.8 µM
- TGI [16]: 33.5 µM
- TGI [17]: 22.7 µM
- TGI [18]: 36.4 µM
- TGI [19]: 34.5 µM
- TGI [20]: > 52.7 µM
- TGI [21]: > 42.6 µM
- TGI [22]: > 64.3 µM
- TGI [23]: > 54 µM
- TGI [24]: 5.48 µM
- TGI [25]: 25.8 µM
- TGI [26]: 25 µM
- TGI [27]: 24.7 µM
- TGI [28]: 15.8 µM
- TGI [29]: 39.3 µM
- TGI [30]: 16 µM
- TGI [31]: > 22.7 µM
- TGI [32]: > 57 µM
- TGI [33]: 43 µM
- TGI [34]: 29.4 µM
- TGI [35]: 29.8 µM
- TGI [36]: 28.6 µM
- TGI [37]: 20.7 µM
- TGI [38]: 27.6 µM
- TGI [39]: > 47.1 µM
- TGI [40]: 26.4 µM
- TGI [41]: 28.2 µM
- TGI [42]: 51 µM
- TGI [43]: 33.9 µM
- TGI [44]: 37.5 µM
- TGI [45]: 28.6 µM
- TGI [46]: 32.7 µM
- TGI [47]: 19 µM
- TGI [48]: 36.6 µM
- TGI [49]: 8.99 µM
- TGI [50]: 63.6 µM
- TGI [51]: 11.8 µM
- TGI [52]: 34.1 µM
- TGI [53]: 30.9 µM
- TGI [54]: 29.3 µM
- TGI [55]: > 21 µM
- TGI [56]: > 61.3 µM
- TGI [57]: 63 µM
- TGI [58]: 24.4 µM

SMILES: FC(F)(F)c1ccc2c(c1)nc(Cc1ccc(Cl)cc1)n2CC1CCCN2CCCCC12 (stereo not drawn)
- TGI [1]: 20.7 µM
- TGI [2]: 15.2 µM
- TGI [3]: 26.4 µM
- TGI [4]: 36.1 µM
- TGI [5]: 24.1 µM
- TGI [6]: 22 µM
- TGI [7]: 10.4 µM
- TGI [8]: 13.1 µM
- TGI [9]: 19.4 µM
- TGI [10]: 21.8 µM
- TGI [11]: 19.9 µM
- TGI [12]: 22.3 µM
- TGI [13]: 24.7 µM
- TGI [14]: 24.2 µM
- TGI [59]: 3.8 µM
- TGI [15]: 19.6 µM
- TGI [16]: 20.7 µM
- TGI [17]: 10.1 µM
- TGI [18]: 20.9 µM
- TGI [19]: 26.9 µM
- TGI [20]: 7.85 µM
- TGI [21]: 23.4 µM
- TGI [22]: 7.13 µM
- TGI [23]: 21.6 µM
- TGI [24]: 16.9 µM
- TGI [25]: 23.7 µM
- TGI [26]: 27.7 µM
- TGI [27]: 10.5 µM
- TGI [29]: 13.7 µM
- TGI [30]: 23.6 µM
- TGI [32]: 6.9 µM
- TGI [33]: 6.38 µM
- TGI [34]: 20.5 µM
- TGI [35]: 27.1 µM
- TGI [36]: 23.2 µM
- TGI [37]: 20.4 µM
- TGI [38]: 15.2 µM
- TGI [39]: 27.4 µM
- TGI [40]: 11.6 µM
- TGI [41]: 4.91 µM
- TGI [42]: 20.8 µM
- TGI [43]: 16 µM
- TGI [44]: 25.1 µM
- TGI [45]: 24.4 µM
- TGI [46]: 22 µM
- TGI [47]: 20.9 µM
- TGI [48]: 18 µM
- TGI [49]: 30.4 µM
- TGI [51]: 0.0985 µM
- TGI [52]: 25 µM
- TGI [53]: 21.4 µM
- TGI [54]: 8.41 µM
- TGI [55]: 6.13 µM
- TGI [56]: 14 µM
- TGI [58]: 21.4 µM

SMILES: NC(C(=O)O)C(O)c1cnc[nH]1 (stereo not drawn)
- TGI [1]: > 100 µM
- TGI [2]: > 100 µM
- TGI [3]: > 100 µM
- TGI [4]: > 100 µM
- TGI [5]: > 100 µM
- TGI [6]: > 100 µM
- TGI [7]: > 100 µM
- TGI [8]: > 100 µM
- TGI [9]: > 100 µM
- TGI [10]: > 100 µM
- TGI [11]: > 100 µM
- TGI [12]: > 100 µM
- TGI [13]: > 100 µM
- TGI [14]: > 100 µM
- TGI [59]: > 100 µM
- TGI [15]: > 100 µM
- TGI [16]: > 100 µM
- TGI [17]: > 100 µM
- TGI [18]: > 100 µM
- TGI [19]: > 100 µM
- TGI [20]: > 100 µM
- TGI [21]: > 100 µM
- TGI [22]: > 100 µM
- TGI [23]: > 100 µM
- TGI [24]: > 100 µM
- TGI [25]: > 100 µM
- TGI [26]: > 100 µM
- TGI [28]: > 100 µM
- TGI [29]: > 100 µM
- TGI [30]: > 100 µM
- TGI [31]: > 100 µM
- TGI [32]: > 100 µM
- TGI [33]: > 100 µM
- TGI [34]: > 100 µM
- TGI [35]: > 100 µM
- TGI [36]: > 100 µM
- TGI [37]: > 100 µM
- TGI [38]: > 100 µM
- TGI [39]: > 100 µM
- TGI [40]: > 100 µM
- TGI [41]: > 100 µM
- TGI [42]: > 100 µM
- TGI [43]: > 100 µM
- TGI [44]: > 100 µM
- TGI [45]: > 100 µM
- TGI [46]: > 100 µM
- TGI [47]: > 100 µM
- TGI [48]: > 100 µM
- TGI [49]: > 100 µM
- TGI [50]: > 100 µM
- TGI [52]: > 100 µM
- TGI [53]: > 100 µM
- TGI [54]: > 100 µM
- TGI [55]: > 100 µM
- TGI [56]: > 100 µM
- TGI [57]: > 100 µM
- TGI [58]: > 100 µM

SMILES: Cc1ccc(Nc2nc3ccccc3nc2NS(=O)(=O)c2ccc(N)cc2)cc1
- TGI [1]: > 100 µM
- TGI [2]: > 100 µM
- TGI [3]: 81.9 µM
- TGI [4]: 71 µM
- TGI [5]: > 100 µM
- TGI [6]: > 100 µM
- TGI [7]: 81.8 µM
- TGI [8]: > 100 µM
- TGI [9]: > 100 µM
- TGI [10]: > 100 µM
- TGI [11]: > 100 µM
- TGI [12]: > 100 µM
- TGI [13]: > 100 µM
- TGI [14]: > 100 µM
- TGI [59]: > 100 µM
- TGI [15]: > 100 µM
- TGI [16]: > 100 µM
- TGI [17]: > 100 µM
- TGI [18]: > 100 µM
- TGI [19]: > 100 µM
- TGI [20]: > 100 µM
- TGI [21]: > 100 µM
- TGI [22]: > 100 µM
- TGI [23]: > 100 µM
- TGI [24]: > 100 µM
- TGI [25]: > 100 µM
- TGI [26]: > 100 µM
- TGI [27]: 6.55 µM
- TGI [28]: 16.2 µM
- TGI [29]: > 100 µM
- TGI [30]: > 100 µM
- TGI [31]: 70.7 µM
- TGI [32]: > 100 µM
- TGI [33]: > 100 µM
- TGI [34]: > 100 µM
- TGI [36]: > 100 µM
- TGI [37]: > 100 µM
- TGI [38]: > 100 µM
- TGI [39]: > 100 µM
- TGI [40]: > 100 µM
- TGI [41]: > 100 µM
- TGI [42]: > 100 µM
- TGI [43]: > 100 µM
- TGI [44]: > 100 µM
- TGI [45]: > 100 µM
- TGI [46]: > 100 µM
- TGI [47]: > 100 µM
- TGI [48]: > 100 µM
- TGI [49]: > 100 µM
- TGI [50]: > 100 µM
- TGI [51]: 65.5 µM
- TGI [52]: > 100 µM
- TGI [53]: > 100 µM
- TGI [54]: > 100 µM
- TGI [55]: 80.5 µM
- TGI [56]: > 100 µM
- TGI [57]: > 100 µM
- TGI [58]: 94.3 µM
